In PubChem BioAssay (NCI):
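Exposure lasted 48 hours, with cells grown in 96-well plates and compounds tested at five concentrations. TGI denotes the concentration required for complete inhibition of growth.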

Columns and labels:
Assay in all cases: NCI-60 cell line screen, 48 h
MCF7 breast = test system: MCF7 breast
NCI-H522 lung = test system: NCI-H522 lung
SNB-75 CNS = test system: SNB-75 CNS
OVCAR-8 ovarian = test system: OVCAR-8 ovarian
MOLT-4 leukemia = test system: MOLT-4 leukemia
A549 NSCLC = test system: A549 NSCLC
NCI-H460 lung = test system: NCI-H460 lung
NCI/ADR-RES ovarian = test system: NCI/ADR-RES ovarian
SK-MEL-28 melanoma = test system: SK-MEL-28 melanoma
SF-295 CNS = test system: SF-295 CNS
MALME-3M melanoma = test system: MALME-3M melanoma
KM12 colon = test system: KM12 colon
SNB-19 CNS = test system: SNB-19 CNS
OVCAR-5 ovarian = test system: OVCAR-5 ovarian
HS 578T breast = test system: HS 578T breast
SK-MEL-2 melanoma = test system: SK-MEL-2 melanoma
CCRF-CEM leukemia = test system: CCRF-CEM leukemia
HOP-92 NSCLC = test system: HOP-92 NSCLC
T-47D breast = test system: T-47D breast
SN12C renal = test system: SN12C renal
HOP-62 NSCLC = test system: HOP-62 NSCLC
HL-60(TB) leukemia = test system: HL-60(TB) leukemia
HCC-2998 colon = test system: HCC-2998 colon
UO-31 renal = test system: UO-31 renal
HCT-15 colon = test system: HCT-15 colon
PC-3 prostate = test system: PC-3 prostate
ACHN renal = test system: ACHN renal
786-0 renal = test system: 786-0 renal
COLO 205 colon = test system: COLO 205 colon
OVCAR-4 ovarian = test system: OVCAR-4 ovarian
MDA-MB-231 breast = test system: MDA-MB-231 breast
UACC-257 melanoma = test system: UACC-257 melanoma
MDA-MB-435 = test system: MDA-MB-435
NCI-H23 lung = test system: NCI-H23 lung
RPMI-8226 leukemia = test system: RPMI-8226 leukemia
SF-268 CNS = test system: SF-268 CNS
CAKI-1 renal = test system: CAKI-1 renal
HCT-116 colon = test system: HCT-116 colon
SF-539 CNS = test system: SF-539 CNS
OVCAR-3 ovarian = test system: OVCAR-3 ovarian
EKVX NSCLC = test system: EKVX NSCLC
LOX IMVI melanoma = test system: LOX IMVI melanoma
U251 CNS = test system: U251 CNS
SK-MEL-5 melanoma = test system: SK-MEL-5 melanoma
HT29 colon = test system: HT29 colon
SR leukemia = test system: SR leukemia
A498 renal = test system: A498 renal
M14 melanoma = test system: M14 melanoma
K-562 leukemia = test system: K-562 leukemia
MDA-N = test system: MDA-N
DU-145 prostate = test system: DU-145 prostate
SK-OV-3 ovarian = test system: SK-OV-3 ovarian
TK-10 renal = test system: TK-10 renal
RXF 393 renal = test system: RXF 393 renal
IGROV1 ovarian = test system: IGROV1 ovarian
NCI-H226 lung = test system: NCI-H226 lung
SW-620 colon = test system: SW-620 colon
BT-549 breast = test system: BT-549 breast
UACC-62 melanoma = test system: UACC-62 melanoma

Compound: O=[N+]([O-])c1cc(C2ON=C(c3ccccc3)N2C23CC4CC(CC(C4)C2)C3)ccc1Cl (centres undefined)
- TGI (MCF7 breast): > 100 µM
- TGI (NCI-H522 lung): > 100 µM
- TGI (SNB-75 CNS): 93.6 µM
- TGI (OVCAR-8 ovarian): > 100 µM
- TGI (MOLT-4 leukemia): > 100 µM
- TGI (A549 NSCLC): > 100 µM
- TGI (NCI-H460 lung): > 100 µM
- TGI (NCI/ADR-RES ovarian): > 100 µM
- TGI (SK-MEL-28 melanoma): > 100 µM
- TGI (SF-295 CNS): > 100 µM
- TGI (MALME-3M melanoma): > 100 µM
- TGI (KM12 colon): > 100 µM
- TGI (SNB-19 CNS): > 100 µM
- TGI (OVCAR-5 ovarian): > 100 µM
- TGI (HS 578T breast): > 100 µM
- TGI (SK-MEL-2 melanoma): > 100 µM
- TGI (CCRF-CEM leukemia): > 100 µM
- TGI (HOP-92 NSCLC): > 100 µM
- TGI (T-47D breast): > 100 µM
- TGI (SN12C renal): > 100 µM
- TGI (HOP-62 NSCLC): > 100 µM
- TGI (HL-60(TB) leukemia): > 100 µM
- TGI (HCC-2998 colon): > 100 µM
- TGI (UO-31 renal): > 100 µM
- TGI (HCT-15 colon): > 100 µM
- TGI (PC-3 prostate): > 100 µM
- TGI (ACHN renal): > 100 µM
- TGI (786-0 renal): > 100 µM
- TGI (COLO 205 colon): > 100 µM
- TGI (OVCAR-4 ovarian): > 100 µM
- TGI (MDA-MB-231 breast): > 100 µM
- TGI (UACC-257 melanoma): > 100 µM
- TGI (MDA-MB-435): > 100 µM
- TGI (NCI-H23 lung): > 100 µM
- TGI (RPMI-8226 leukemia): > 100 µM
- TGI (SF-268 CNS): > 100 µM
- TGI (CAKI-1 renal): > 100 µM
- TGI (HCT-116 colon): > 100 µM
- TGI (SF-539 CNS): > 100 µM
- TGI (OVCAR-3 ovarian): > 100 µM
- TGI (EKVX NSCLC): > 100 µM
- TGI (LOX IMVI melanoma): > 100 µM
- TGI (U251 CNS): > 100 µM
- TGI (SK-MEL-5 melanoma): > 100 µM
- TGI (HT29 colon): > 100 µM
- TGI (SR leukemia): > 100 µM
- TGI (A498 renal): > 100 µM
- TGI (M14 melanoma): > 100 µM
- TGI (K-562 leukemia): > 100 µM
- TGI (MDA-N): > 100 µM
- TGI (DU-145 prostate): > 100 µM
- TGI (SK-OV-3 ovarian): > 100 µM
- TGI (TK-10 renal): > 100 µM
- TGI (RXF 393 renal): > 100 µM
- TGI (IGROV1 ovarian): > 100 µM
- TGI (NCI-H226 lung): > 100 µM

Compound: Cc1cccc(C)c1NC(=O)/C(CC(=O)CC(c1ccccc1)c1c(O)c2ccccc2oc1=O)=N/O (centres undefined)
- TGI (MCF7 breast): > 100 µM
- TGI (NCI-H522 lung): > 100 µM
- TGI (SNB-75 CNS): > 100 µM
- TGI (OVCAR-8 ovarian): > 100 µM
- TGI (MOLT-4 leukemia): > 100 µM
- TGI (A549 NSCLC): > 100 µM
- TGI (SW-620 colon): > 100 µM
- TGI (NCI-H460 lung): > 100 µM
- TGI (NCI/ADR-RES ovarian): > 100 µM
- TGI (SK-MEL-28 melanoma): > 100 µM
- TGI (SF-295 CNS): > 100 µM
- TGI (BT-549 breast): > 100 µM
- TGI (KM12 colon): > 100 µM
- TGI (SNB-19 CNS): > 100 µM
- TGI (OVCAR-5 ovarian): > 100 µM
- TGI (HS 578T breast): > 100 µM
- TGI (SK-MEL-2 melanoma): > 100 µM
- TGI (CCRF-CEM leukemia): > 100 µM
- TGI (HOP-92 NSCLC): > 100 µM
- TGI (SN12C renal): > 100 µM
- TGI (HOP-62 NSCLC): > 100 µM
- TGI (HL-60(TB) leukemia): > 100 µM
- TGI (HCC-2998 colon): > 100 µM
- TGI (UO-31 renal): > 100 µM
- TGI (HCT-15 colon): > 100 µM
- TGI (PC-3 prostate): > 100 µM
- TGI (ACHN renal): > 100 µM
- TGI (786-0 renal): > 100 µM
- TGI (COLO 205 colon): > 100 µM
- TGI (OVCAR-4 ovarian): > 100 µM
- TGI (MDA-MB-231 breast): > 100 µM
- TGI (UACC-257 melanoma): > 100 µM
- TGI (MDA-MB-435): > 100 µM
- TGI (NCI-H23 lung): > 100 µM
- TGI (SF-268 CNS): > 100 µM
- TGI (CAKI-1 renal): > 100 µM
- TGI (HCT-116 colon): > 100 µM
- TGI (SF-539 CNS): > 100 µM
- TGI (OVCAR-3 ovarian): > 100 µM
- TGI (EKVX NSCLC): > 100 µM
- TGI (LOX IMVI melanoma): > 100 µM
- TGI (U251 CNS): > 100 µM
- TGI (SK-MEL-5 melanoma): > 100 µM
- TGI (HT29 colon): > 100 µM
- TGI (M14 melanoma): > 100 µM
- TGI (MDA-N): > 100 µM
- TGI (DU-145 prostate): > 100 µM
- TGI (SK-OV-3 ovarian): > 100 µM
- TGI (UACC-62 melanoma): > 100 µM
- TGI (TK-10 renal): > 100 µM
- TGI (RXF 393 renal): > 100 µM
- TGI (IGROV1 ovarian): > 100 µM
- TGI (NCI-H226 lung): > 100 µM
